# Laboratory results reported in patent US20050054696A1, “Indole compounds and medicinal use thereof” (priority 2001, published 2005).
# Molecular target: T1, recombinant human liver glycogen phosphorylase (HLGPa) (Homo sapiens, UniProt P06737)
# T1 construct: made in house; host or cells: Sf9 insect cells (unpurified cell lysate used as enzyme solution)
# T1 sequence (P06737 1-847): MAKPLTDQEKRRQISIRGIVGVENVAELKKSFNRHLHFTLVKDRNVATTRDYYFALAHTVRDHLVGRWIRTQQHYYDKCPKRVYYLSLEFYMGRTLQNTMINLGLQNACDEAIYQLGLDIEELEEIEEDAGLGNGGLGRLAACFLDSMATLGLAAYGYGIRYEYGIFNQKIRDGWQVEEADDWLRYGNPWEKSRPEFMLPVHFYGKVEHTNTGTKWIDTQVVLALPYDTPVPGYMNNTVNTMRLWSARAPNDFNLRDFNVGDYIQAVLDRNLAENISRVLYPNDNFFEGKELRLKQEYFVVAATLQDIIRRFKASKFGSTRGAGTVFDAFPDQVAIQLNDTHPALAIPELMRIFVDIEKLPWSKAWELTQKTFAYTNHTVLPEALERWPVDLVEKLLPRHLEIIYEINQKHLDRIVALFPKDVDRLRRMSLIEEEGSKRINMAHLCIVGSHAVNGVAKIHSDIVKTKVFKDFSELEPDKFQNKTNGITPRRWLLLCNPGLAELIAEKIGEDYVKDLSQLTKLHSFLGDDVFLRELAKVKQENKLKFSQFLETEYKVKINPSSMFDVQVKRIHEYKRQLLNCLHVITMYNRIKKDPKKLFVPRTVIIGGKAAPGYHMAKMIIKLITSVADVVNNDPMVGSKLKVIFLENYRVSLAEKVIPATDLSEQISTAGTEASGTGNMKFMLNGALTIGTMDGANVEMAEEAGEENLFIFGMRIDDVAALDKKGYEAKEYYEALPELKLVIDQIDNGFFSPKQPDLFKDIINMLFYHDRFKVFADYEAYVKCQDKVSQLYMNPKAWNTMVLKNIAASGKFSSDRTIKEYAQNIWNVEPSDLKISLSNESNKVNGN
# Test: Measurement of liver glycogen phosphorylase activity (enzyme inhibitory activity against HLGPa)
# Format: biochemical
# Details: Sf9 cell lysate expressing recombinant enzyme; reverse reaction (glycogen synthesis from G1-P), phosphate by malachite green, 60 min room temperature
# Method in brief: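 Activity was run in the reverse, glycogen-synthesis direction, using Sf9 lysate expressing recombinant human liver glycogen phosphorylase (enzyme solution 80 μg/mL protein, pH 7.0). Substrate solution was Tris pH 7.2 with 1.25 mM glucose-1-phosphate, 2.5 mg/ml glycogen and 7.5 mM glucose, reacted 60 min at room temperature. Released phosphate was measured by malachite green A650, with % inhibition taken against DMSO control and no-enzyme blank.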
row,Compound,IC50 [nM]
1,"Cc1ccc2[nH]c(C(=O)Nn3c(=O)[nH]c4ccc(O)cc4c3=O)cc2c1 [Example 2-28, 5-methyl-1H-indole-2-carboxylic acid (1,2,3,4-tetrahydro-6-hydroxy-2,4-dioxoquinazolin-3-yl)amide]",56
2,"CC(=O)Oc1ccc2[nH]c(=O)n(NC(=O)c3cc4cc(C)ccc4[nH]3)c(=O)c2c1 [Example 2-29, acetic acid 3-((5-methyl-1H-indole-2-carbonyl)amino)-1,2,3,4-tetrahydro-2,4-dioxoquinazolin-6-yl ester]",270
3,"Cn1c(=O)n(NC(=O)c2cc3cc(Cl)ccc3[nH]2)c(=O)c2ccccc21 [Example 2-31, 5-chloro-1H-indole-2-carboxylic acid (1,2,3,4-tetrahydro-1-methyl-2,4-dioxoquinazolin-3-yl)amide]",26
4,"O=C(NN1C(=O)CCN(c2ccccc2)C1=O)c1cc2cc(Cl)ccc2[nH]1 [Example 3-3, N-(2,4-dioxo-1-phenyl-perhydropyrimidin-3-yl)-5-chloro-1H-indole-2-carboxamide]",78
5,"O=C(NN1C(=O)CCN(c2ccccn2)C1=O)c1cc2cc(Cl)ccc2[nH]1 [Example 3-6, 5-chloro-1H-indole-2-carboxylic acid (2,4-dioxo-1-(pyridin-2-yl)perhydropyrimidin-3-yl)amide]",190
6,"O=C(NN1C(=O)CCN(c2cccc(F)c2)C1=O)c1cc2cc(Cl)ccc2[nH]1 [Example 3-7, 5-chloro-1H-indole-2-carboxylic acid (1-(3-fluorophenyl)-2,4-dioxoperhydropyrimidin-3-yl)amide]",50
7,"O=C(NN1C(=O)CCN(c2ccccc2)C1=O)c1cc2cc(F)ccc2[nH]1 [Example 3-9, 5-fluoro-1H-indole-2-carboxylic acid (2,4-dioxo-1-phenyl-perhydropyrimidin-3-yl)amide]",730
8,"Cc1ccc2[nH]c(C(=O)NN3C(=O)CCN(c4ccccc4)C3=O)cc2c1 [Example 3-10, 5-methyl-1H-indole-2-carboxylic acid (2,4-dioxo-1-phenyl-perhydropyrimidin-3-yl)amide]",440
9,"O=C(NN1C(=O)CCN(c2cccc(Cl)c2)C1=O)c1cc2cc(Cl)ccc2[nH]1 [Example 3-11, 5-chloro-1H-indole-2-carboxylic acid (1-(3-chlorophenyl)-2,4-dioxoperhydropyrimidin-3-yl)amide]",520
10,"O=C(NN1C(=O)CCN(c2ccc(Cl)cc2)C1=O)c1cc2cc(Cl)ccc2[nH]1 [Example 3-14, 5-chloro-1H-indole-2-carboxylic acid (1-(4-chlorophenyl)-2,4-dioxoperhydropyrimidin-3-yl)amide]",120

# Continued by falling IC50, values first:
row,IC50 [nM],Compound
1,680,"Cc1cccc(N2CCC(=O)N(NC(=O)c3cc4cc(Cl)ccc4[nH]3)C2=O)c1 [Example 3-12, 5-chloro-1H-indole-2-carboxylic acid (2,4-dioxo-1-(m-tolyl)perhydropyrimidin-3-yl)amide]"
2,440,"Cc1ccc(N2CCC(=O)N(NC(=O)c3cc4cc(Cl)ccc4[nH]3)C2=O)cc1 [Example 3-13, 5-chloro-1H-indole-2-carboxylic acid (2,4-dioxo-1-(p-tolyl)perhydropyrimidin-3-yl)amide]"
3,300,"COc1ccc2[nH]c(=O)n(NC(=O)c3cc4cc(C)ccc4[nH]3)c(=O)c2c1 [Example 2-27, 5-methyl-1H-indole-2-carboxylic acid (1,2,3,4-tetrahydro-6-methoxy-2,4-dioxoquinazolin-3-yl)amide]"
4,190,"O=C(NN1C(=O)CCN(c2ccc(F)cc2)C1=O)c1cc2cc(Cl)ccc2[nH]1 [Example 3-5, 5-chloro-1H-indole-2-carboxylic acid (1-(4-fluorophenyl)-2,4-dioxoperhydropyrimidin-3-yl)amide]"
5,88,"CCCn1c(=O)n(NC(=O)c2cc3cc(Cl)ccc3[nH]2)c(=O)c2ccccc21 [Example 2-30, 5-chloro-1H-indole-2-carboxylic acid (1,2,3,4-tetrahydro-2,4-dioxo-1-propylquinazolin-3-yl)amide]"
